For experiment [1], the system named is atherosclerosis in apo E knockout mice. In words: Peptide immunization of Apo E (−/−) mice on high cholesterol diet: atherosclerotic plaque size and composition. The note with it: for Effect on atherosclerosis in the aorta: immunization of apo E knockout mice with single peptide sequence or mixture (Table B); for Atherosclerotic plaque in the descending aorta, en face oil red O, in comparison to control (in words): Apo E (−/−) mice vs Alum control; for mean collagen content in the aortic sinus plaques: Trichrome staining; for mean collagen content in the aortic sinus plaques / Total plaque size in aortic sinus / % of plaque in aorta (flat prep.) / Oil red O (+) area (% of aortic sinus plaque) / Aortic arch plaque size: mean ± Std; for Total plaque size in aortic sinus: Apo E (−/−) mice, sacrifice at 25 weeks; for % of plaque in aorta (flat prep.): descending thoracic and abdominal aorta, en face, oil red O; for Oil red O (+) area (% of aortic sinus plaque): lipid content of aortic sinus plaque.
Procedure: Apo E (−/−) mice received subcutaneous primary immunization at 6-7 weeks of age, followed by an intra-peritoneal booster 3 weeks later. Mice were fed high cholesterol diet from the onset of immunization and continued until sacrifice at the age of 25 weeks.
Alum was used as immunoadjuvant and mixed with peptide conjugate with 1:1 dilution in volume. The amount of peptide in each immunization was 33 μg/100 μl per injection.
Apo E (−/−) mice from the Jackson Laboratories (Bar Harbor, Me.) received subcutaneous primary immunization at 6-7 weeks of age, followed by an intra-peritoneal booster 3 weeks later. Mice were fed high cholesterol diet from the onset of immunization and continued until sacrifice at the age of 25 weeks. Blood samples were collected 2 weeks after booster and at the time of sacrifice. Mice receiving Alum served as control. […] At the time of sacrifice, mice were anesthetized by inhalation Enflurane. Plasma was obtained by retro-orbital bleeding prior to sacrifice.
To evaluate the effect of peptide immunization on atherosclerosis formation, the plaque size at aortic sinus was assessed, aortic arch and descending thoracic and abdominal aorta. After the heart and aortic tree were perfused with normal saline at physiological pressure, the heart and proximal aorta were excised and embedded in OCT compound (Tissue-Tek) and frozen sectioned. Serial 6-μm-thick sections were collected from the appearance of at least 2 aortic valves to the disappearance of the aortic valve leaflets for aortic sinus plaque evaluation. Typically 3 consecutive sections were on one slide and a total of 25-30 slides were collected from one mouse and every fifth slide was grouped for staining. Ascending aorta and aortic arches upto left subclavian artery were also sectioned and processed similarly. Descending thoracic and abdominal aorta were processed separately for en face evaluation of plaque formation after oil red O staining.
Chicken egg albumin (Sigma) in a concentration of 0.8 g/ml water was mixed 1:1 with glycerol. Sodium azide was added to make a final concentration of sodium azide 0.2%. After descending thoracic and abdominal aorta was cleaned off surrounding tissue and fat, the segment of aorta from left subclavian artery to the level of renal artery was then carefully removed for overnight fixation in Histochoice (Amresco). Aorta was then carefully opened longitudinally and placed with luminal side up on a slide freshly coated with egg albumin solution. After albumin solution became dry, the aorta was stained with Oil red O to assess the extent of atherosclerosis with computer-assisted histomorphometry.

Experiment [2] deals with Apo E (−/−) mice. The experiment in a line: Antibody titer against immunized peptide after immunization (mouse serum ELISA). Type of experiment: in vivo. The following applies: mouse serum 1/50; immunized group; mean ± Std. The protocol: Antibody titer measurement. To measure the antibody response after peptide immunization, an ELISA was developed. Antibody titer against immunized peptide was measured using blood collected at 2 weeks after booster and at sacrifice. Antibody response against 3 peptides was also determined in Alum group at the same time-points. In brief, native synthetic peptides diluted in PBS pH 7.4 (20 μg/ml) were absorbed to microtiter plate wells (Nunc MaxiSorp, Nunc, Roskilde, Denmark) in an overnight incubation at 4° C. […] After rinsing, deposition of antibodies directed to the peptides was detected by using biotinylated rabbit anti-mouse Ig antibodies (Dako A/S, Glostrup, Denmark) appropriately diluted in TBS-T. After another incubation for 2 h at room temperature the plates were washed and the bound biotinylated antibodies were detected by alkaline phosphatase conjugated streptavidin (Sigma), incubated for 2 h at room temperature. Using phosphatase substrate kit (Pierce) developed the colour reaction and the absorbance at 405 nm was measured after 1 h of incubation at room temperature. Mean values were calculated after the background was subtracted.
(In general: ELISA stands for enzyme-linked immunosorbent assay.)

Entries after “also recorded” stand apart in the source; their conditions may differ.

On to IEIGLEGKGFEPTLEALFGK [Peptide 45], for which the “Effect on atherosclerosis in the aorta” value in experiment [1] is −47.4%.
Still for that read-out and setting: next, FPDLGQEVALNANTKNQKIR [Peptide 240]: 0%.
For ATRFKHLRKYTYNYQAQSSS [Peptide 2], in experiment [2], the “Increase of antibody titer against immunized peptide after immunization” value amounted to 2.4±1.0 fold. Further, the “Atherosclerotic plaque in the descending aorta, en face oil red O, in comparison to control (in words)” value (“Atherosclerotic plaque” below) in experiment [1] (listed as peptide No. 2) was “substantially reduced atherosclerosis; also recorded: significantly reduced atherosclerotic burden”. Besides, in experiment [1], the “mean collagen content in the aortic sinus plaques” value is 40.0±7.7% and the “Effect on atherosclerosis in the aorta” value is given as −67.7%. For the same sequence, the “macrophage infiltration in the aortic sinus plaques (MOMA-2)” value in experiment [1] (immunohistochemistry) is reported as “significantly reduced macrophage infiltration”.
In the case of KTTKQSFDLSVKAQYKKNKH [Peptide 210], the “Effect on atherosclerosis in the aorta” value in experiment [1] is reported as −57.9%.
For the sequence HTFLIYITELLKKLQSTTVM [Peptide 301], in experiment [1], the “Atherosclerotic plaque” value is recorded as “substantially reduced atherosclerosis”; the “Total plaque size in aortic sinus” value is listed as 0.46 ± 0.16 mm^2; the “% of plaque in aorta (flat prep.)” value is given as 8.9 ± 2.2 %; the “Effect on atherosclerosis in the aorta” value is given as −55.2%. In experiment [1], the “Oil red O (+) area (% of aortic sinus plaque)” value came to 23.8 ± 4.1% and the “Aortic arch plaque size” value was 0.050 ± 0.024 mm^2.
As to VISIPRLQAEARSEILAHWS [Peptide 74], the “Effect on atherosclerosis in the aorta” value in experiment [1] was −31.0%.
Regarding EEEMLENVSLVCPKDATRFK [Peptide 1], the “Increase of antibody titer against immunized peptide after immunization” value in experiment [2] is on record as 6.1±3.1 fold. The “Atherosclerotic plaque” value in experiment [1] (listed as Peptide No 1) is given as “did not produce a significant reduction in atherosclerosis”. Also, in experiment [1], the “Total plaque size in aortic sinus” value is 0.48 ± 0.14 mm^2, the “mean collagen content in the aortic sinus plaques” value is 35.6±8.5%, the “% of plaque in aorta (flat prep.)” value turned out to be 17 ± 4.3% and the “Effect on atherosclerosis in the aorta” value is listed as −15.4%. For the same sequence, in experiment [1], the “Oil red O (+) area (% of aortic sinus plaque)” value was determined as 32.0 ± 8.1% and the “Aortic arch plaque size” value is on record as 0.054 ± 0.027 mm^2. The “Effect of immunisation on the development of atherosclerosis (in words)” value in experiment [1] (summary statement) is reported as “lacks total effect”.
